Measurements published in ChEMBL document CHEMBL2010665, “Novel, druglike 1,7-disubstituted 2,3,4,5-tetrahydro-1H-benzo[b]azepine-based selective inhibitors of human neuronal nitric oxide synthase (nNOS)” (Bioorg Med Chem Lett, 2012).

Tests used:
[1] = target: Nitric oxide synthase 1 (Homo sapiens, UniProt P29475); assay: Inhibition of human recombinant nNOS expressed in baculovirus infected insect sf9 cells assessed as conversion of [3H]-L-arginine into [3H]-L-citrulline by radiometric method
[2] = target: Nitric oxide synthase, inducible (Homo sapiens, UniProt P35228); assay: Inhibition of human recombinant iNOS expressed in baculovirus infected insect sf9 cells assessed as conversion of [3H]-L-arginine into [3H]-L-citrulline by radiometric method
[3] = target: Voltage-gated inwardly rectifying potassium channel KCNH2 (Homo sapiens, UniProt Q12809); assay: Inhibition of human Erg expressed in HEK293 cells up to 30 uM by patch clamp assay; assay type: cell-based
[4] = target: Nitric oxide synthase, inducible (Rattus norvegicus, UniProt Q06518); assay: Inhibition of rat iNOS
[5] = target: T1, Nitric oxide synthase 3 (Homo sapiens, UniProt P29474); assay: Inhibition of human recombinant eNOS expressed in baculovirus infected insect sf9 cells assessed as conversion of [3H]-L-arginine into [3H]-L-citrulline by radiometric method
T1 sequence (P29474 whole entry): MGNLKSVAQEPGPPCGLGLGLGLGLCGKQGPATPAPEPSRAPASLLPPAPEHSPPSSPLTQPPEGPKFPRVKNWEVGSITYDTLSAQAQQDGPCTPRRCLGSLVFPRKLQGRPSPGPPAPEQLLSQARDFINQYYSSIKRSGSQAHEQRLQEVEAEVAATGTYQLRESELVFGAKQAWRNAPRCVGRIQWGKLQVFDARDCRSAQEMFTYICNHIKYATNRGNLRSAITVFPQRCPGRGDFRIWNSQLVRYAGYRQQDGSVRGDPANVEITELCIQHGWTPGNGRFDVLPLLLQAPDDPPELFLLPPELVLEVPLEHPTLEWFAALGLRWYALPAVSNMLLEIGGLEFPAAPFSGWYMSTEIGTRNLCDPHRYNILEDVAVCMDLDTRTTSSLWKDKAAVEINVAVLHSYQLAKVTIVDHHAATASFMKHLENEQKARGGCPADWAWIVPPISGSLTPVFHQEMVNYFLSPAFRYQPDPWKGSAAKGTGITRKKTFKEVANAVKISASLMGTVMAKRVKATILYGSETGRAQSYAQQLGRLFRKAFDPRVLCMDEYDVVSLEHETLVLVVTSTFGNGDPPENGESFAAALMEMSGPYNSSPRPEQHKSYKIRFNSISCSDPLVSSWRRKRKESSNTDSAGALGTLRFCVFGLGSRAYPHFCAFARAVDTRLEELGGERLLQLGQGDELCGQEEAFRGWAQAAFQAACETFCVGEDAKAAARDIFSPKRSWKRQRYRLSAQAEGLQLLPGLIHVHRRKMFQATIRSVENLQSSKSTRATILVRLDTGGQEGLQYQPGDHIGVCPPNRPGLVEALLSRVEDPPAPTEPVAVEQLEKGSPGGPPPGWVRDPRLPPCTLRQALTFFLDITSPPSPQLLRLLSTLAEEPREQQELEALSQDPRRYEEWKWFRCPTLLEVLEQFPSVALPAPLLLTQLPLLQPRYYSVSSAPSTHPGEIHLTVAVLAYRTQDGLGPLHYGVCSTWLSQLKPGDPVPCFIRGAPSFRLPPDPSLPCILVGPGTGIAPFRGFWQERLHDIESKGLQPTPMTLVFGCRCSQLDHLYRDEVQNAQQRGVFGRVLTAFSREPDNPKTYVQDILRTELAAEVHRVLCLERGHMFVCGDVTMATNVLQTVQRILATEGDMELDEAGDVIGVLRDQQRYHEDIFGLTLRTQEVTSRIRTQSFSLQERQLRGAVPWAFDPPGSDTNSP

Sequence of Nitric oxide synthase 1 (P29475 whole entry): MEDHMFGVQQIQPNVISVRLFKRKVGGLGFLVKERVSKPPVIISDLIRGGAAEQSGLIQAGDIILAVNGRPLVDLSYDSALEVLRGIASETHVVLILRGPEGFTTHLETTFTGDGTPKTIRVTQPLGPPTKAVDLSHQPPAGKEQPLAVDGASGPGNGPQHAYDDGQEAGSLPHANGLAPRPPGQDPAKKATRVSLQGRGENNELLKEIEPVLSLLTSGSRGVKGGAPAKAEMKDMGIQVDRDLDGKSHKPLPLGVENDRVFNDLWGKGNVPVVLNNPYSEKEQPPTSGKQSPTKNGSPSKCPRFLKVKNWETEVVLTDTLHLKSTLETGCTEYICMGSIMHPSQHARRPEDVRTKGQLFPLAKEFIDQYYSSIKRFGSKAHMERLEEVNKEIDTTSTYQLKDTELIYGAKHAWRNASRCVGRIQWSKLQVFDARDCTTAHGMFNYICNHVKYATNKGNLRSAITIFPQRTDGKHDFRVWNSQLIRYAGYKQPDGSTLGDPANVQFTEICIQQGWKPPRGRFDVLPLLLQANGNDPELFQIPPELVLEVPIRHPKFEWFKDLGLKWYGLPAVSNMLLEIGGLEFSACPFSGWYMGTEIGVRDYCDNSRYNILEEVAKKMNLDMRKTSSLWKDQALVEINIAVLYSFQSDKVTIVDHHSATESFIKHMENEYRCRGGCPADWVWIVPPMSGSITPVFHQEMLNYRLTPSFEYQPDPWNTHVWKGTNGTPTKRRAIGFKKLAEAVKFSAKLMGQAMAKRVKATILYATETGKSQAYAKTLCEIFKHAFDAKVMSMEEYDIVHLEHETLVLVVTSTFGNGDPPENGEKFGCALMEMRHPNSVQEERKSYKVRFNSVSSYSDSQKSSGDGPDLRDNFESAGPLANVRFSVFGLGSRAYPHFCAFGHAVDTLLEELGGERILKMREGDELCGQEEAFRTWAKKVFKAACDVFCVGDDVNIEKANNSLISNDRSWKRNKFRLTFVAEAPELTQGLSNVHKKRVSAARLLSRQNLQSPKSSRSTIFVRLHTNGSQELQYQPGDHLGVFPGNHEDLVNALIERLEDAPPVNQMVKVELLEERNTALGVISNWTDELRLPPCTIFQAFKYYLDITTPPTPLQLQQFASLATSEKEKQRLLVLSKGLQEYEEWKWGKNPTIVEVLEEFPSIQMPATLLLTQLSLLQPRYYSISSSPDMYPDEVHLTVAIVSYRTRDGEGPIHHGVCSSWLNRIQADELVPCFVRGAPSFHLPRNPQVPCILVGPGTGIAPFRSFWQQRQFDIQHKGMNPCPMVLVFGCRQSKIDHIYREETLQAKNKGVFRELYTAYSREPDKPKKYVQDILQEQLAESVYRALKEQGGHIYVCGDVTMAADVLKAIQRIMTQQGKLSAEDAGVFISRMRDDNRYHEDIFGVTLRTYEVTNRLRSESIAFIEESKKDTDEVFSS
Sequence of Nitric oxide synthase, inducible (Homo sapiens, UniProt P35228) (P35228 whole entry): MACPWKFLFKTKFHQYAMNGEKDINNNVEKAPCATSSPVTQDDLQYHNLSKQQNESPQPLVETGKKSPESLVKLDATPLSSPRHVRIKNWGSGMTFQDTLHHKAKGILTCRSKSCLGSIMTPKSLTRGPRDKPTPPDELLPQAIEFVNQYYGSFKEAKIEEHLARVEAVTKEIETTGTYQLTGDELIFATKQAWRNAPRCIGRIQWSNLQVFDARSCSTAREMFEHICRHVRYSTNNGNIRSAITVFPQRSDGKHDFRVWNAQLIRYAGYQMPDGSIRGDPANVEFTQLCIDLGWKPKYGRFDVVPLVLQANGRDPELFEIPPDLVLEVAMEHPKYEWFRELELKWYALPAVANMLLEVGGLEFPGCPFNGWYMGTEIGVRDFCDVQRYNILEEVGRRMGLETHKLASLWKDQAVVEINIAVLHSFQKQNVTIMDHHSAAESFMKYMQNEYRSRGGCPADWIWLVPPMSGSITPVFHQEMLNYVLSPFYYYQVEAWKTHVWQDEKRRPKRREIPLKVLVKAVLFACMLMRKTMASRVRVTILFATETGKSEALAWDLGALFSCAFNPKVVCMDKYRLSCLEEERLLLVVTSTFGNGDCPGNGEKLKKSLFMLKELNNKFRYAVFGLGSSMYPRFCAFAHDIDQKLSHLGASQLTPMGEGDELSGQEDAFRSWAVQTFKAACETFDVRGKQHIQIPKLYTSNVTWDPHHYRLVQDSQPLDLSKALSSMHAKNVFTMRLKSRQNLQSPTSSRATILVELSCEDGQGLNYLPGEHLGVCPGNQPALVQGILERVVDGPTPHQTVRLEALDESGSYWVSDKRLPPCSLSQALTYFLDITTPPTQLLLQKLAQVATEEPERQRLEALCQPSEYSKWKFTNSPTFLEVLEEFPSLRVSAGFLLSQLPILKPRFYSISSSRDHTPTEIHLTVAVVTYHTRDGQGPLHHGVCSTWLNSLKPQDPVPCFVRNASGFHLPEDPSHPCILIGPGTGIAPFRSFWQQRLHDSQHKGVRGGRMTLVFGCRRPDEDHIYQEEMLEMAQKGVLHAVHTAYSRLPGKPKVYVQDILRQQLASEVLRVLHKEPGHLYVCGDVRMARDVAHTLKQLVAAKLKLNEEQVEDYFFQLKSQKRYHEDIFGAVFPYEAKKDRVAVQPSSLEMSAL
Sequence of Nitric oxide synthase, inducible (Rattus norvegicus, UniProt Q06518) (Q06518 whole entry): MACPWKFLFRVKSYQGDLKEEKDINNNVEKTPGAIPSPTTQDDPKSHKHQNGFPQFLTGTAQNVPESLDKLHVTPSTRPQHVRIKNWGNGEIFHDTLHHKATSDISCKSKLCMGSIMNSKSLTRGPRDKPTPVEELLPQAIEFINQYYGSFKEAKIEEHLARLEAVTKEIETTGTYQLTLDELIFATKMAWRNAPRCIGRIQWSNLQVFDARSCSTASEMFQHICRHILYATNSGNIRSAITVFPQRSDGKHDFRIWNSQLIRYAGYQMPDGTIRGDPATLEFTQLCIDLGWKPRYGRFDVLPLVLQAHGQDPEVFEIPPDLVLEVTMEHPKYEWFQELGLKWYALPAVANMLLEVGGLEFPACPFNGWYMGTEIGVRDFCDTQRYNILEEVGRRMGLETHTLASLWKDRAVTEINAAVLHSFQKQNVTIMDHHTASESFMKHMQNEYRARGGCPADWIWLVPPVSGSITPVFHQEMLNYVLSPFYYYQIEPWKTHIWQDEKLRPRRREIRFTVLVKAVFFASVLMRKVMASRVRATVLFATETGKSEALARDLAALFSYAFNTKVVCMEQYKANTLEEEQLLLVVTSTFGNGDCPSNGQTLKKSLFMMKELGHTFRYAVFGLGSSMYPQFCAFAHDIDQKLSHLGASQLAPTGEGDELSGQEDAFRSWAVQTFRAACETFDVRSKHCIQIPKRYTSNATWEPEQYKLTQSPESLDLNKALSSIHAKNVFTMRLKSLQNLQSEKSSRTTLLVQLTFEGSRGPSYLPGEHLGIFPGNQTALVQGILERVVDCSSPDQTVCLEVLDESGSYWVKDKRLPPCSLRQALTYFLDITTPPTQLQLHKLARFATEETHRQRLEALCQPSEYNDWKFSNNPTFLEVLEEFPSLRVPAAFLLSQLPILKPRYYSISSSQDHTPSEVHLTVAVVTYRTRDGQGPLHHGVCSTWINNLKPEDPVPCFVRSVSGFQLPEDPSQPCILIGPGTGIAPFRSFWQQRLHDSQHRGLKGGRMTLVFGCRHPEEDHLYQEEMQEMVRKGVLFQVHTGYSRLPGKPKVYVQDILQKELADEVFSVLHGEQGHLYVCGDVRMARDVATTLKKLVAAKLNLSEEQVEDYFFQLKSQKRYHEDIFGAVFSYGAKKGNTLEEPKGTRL
Sequence of Voltage-gated inwardly rectifying potassium channel KCNH2 (Q12809 whole entry): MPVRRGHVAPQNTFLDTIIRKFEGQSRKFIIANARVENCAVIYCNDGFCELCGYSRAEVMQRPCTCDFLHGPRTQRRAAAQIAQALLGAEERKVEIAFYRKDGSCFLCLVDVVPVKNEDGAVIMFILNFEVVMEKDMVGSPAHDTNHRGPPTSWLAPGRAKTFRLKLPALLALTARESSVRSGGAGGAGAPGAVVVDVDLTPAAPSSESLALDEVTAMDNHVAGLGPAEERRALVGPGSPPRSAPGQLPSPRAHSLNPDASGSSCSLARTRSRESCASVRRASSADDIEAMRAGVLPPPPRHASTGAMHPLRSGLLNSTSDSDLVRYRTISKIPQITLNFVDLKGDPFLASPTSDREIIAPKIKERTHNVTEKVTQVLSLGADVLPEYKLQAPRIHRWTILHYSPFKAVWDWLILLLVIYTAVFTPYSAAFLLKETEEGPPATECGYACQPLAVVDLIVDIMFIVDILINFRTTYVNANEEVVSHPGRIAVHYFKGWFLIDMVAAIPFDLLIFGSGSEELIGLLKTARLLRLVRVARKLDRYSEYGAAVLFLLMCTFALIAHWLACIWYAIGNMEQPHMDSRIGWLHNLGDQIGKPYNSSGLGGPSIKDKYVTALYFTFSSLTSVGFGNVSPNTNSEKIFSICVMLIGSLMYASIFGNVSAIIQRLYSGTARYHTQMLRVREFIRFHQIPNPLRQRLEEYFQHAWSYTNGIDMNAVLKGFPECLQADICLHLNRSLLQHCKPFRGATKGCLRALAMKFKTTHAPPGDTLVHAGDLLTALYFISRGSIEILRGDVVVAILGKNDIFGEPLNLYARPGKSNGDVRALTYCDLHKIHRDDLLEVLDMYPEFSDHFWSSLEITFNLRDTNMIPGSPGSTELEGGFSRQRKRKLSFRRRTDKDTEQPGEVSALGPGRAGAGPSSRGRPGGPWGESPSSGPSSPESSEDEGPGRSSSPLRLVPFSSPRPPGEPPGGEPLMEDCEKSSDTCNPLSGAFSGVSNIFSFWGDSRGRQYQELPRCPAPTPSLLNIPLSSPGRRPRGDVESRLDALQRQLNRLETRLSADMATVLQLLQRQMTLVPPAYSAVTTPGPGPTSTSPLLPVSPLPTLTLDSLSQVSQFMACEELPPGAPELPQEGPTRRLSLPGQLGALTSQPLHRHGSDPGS

| IC50 [1] [µM] | IC50 [2] [µM] | IC50 [4] [µM] | IC50 [5] [µM] | SMILES | inhibition (INH) [3] |
| --- | --- | --- | --- | --- | --- |
| 1.86 | > 100 |  |  | CN1CCCC1CCN1CCCCc2cc(NC(=N)c3cccs3)ccc21 (racemic) |  |
|  | > 100 |  |  | CN1CCC(N2CCCCc3cc(NC(=N)c4cccs4)ccc32)C1 (racemic) |  |
| 2.38 |  |  |  | N=C(Nc1ccc2c(c1)CCCCN2C1CCNCC1)c1cccs1 |  |
| 1.96 |  |  |  | N=C(Nc1ccc2c(c1)CCCCN2CCN1CCCCC1)c1cccs1 |  |
|  | 1.5 | > 100 |  | CN(C)CCN1CCCCc2cc(NC(=N)c3cccs3)ccc21.Cl.Cl | Not Active |
|  | 13.5 |  |  | N=C(Nc1ccc2c(c1)CCCCN2C1CCNC1)c1cccs1 (racemic) |  |
| 0.16 | 16.9 |  | 82.2 | N=C(Nc1ccc2c(c1)CCCCN2CCN1CCCC1)c1cccs1 |  |
| 0.1 | > 100 |  |  | CNCCN1CCCCc2cc(NC(=N)c3cccs3)ccc21 |  |
